From patent US5912183A, “Peptide inhibitors of mitogenesis and motogenesis” (Pharmacia & Upjohn S.p.A., priority 1993, dated 1999) come the findings set out here.

This experiment has as its system N- and C-SH2 domains of p85. The experiment can be described thus: BIAcore inhibition of binding of GST-SH2 domains to immobilized PDGF receptor phosphopeptide Y751. Further details: species or system bovine. Conditions: range of phosphopeptide concentrations; 25° C.; FIG. 7. As to the method:
FIG. 7. Evaluation of the relative affinities of phosphotyrosine 1313, 1349 and 1356 for the N- and C- SH2 domains of p85. Affinities were determined by biospecific interaction analysis with the BIAcore instrument (Jonsson, U., Fagerstam, L., Roos, H., Ronnberg, J., Sjolander, Stenber, E., Stahlberg, R. Urbaniczky, C., Ostlin, H., and Malmquist. 1991. Surface plasmon reasonance and microfluidics for real time biospecific interaction analysis. Biotechniques 11: 520-527; Jonsson, U. and M. Malmquist. 1992. Real time biospecific analysis. The integration of surface plasmon reasonance detection, general biospecific interface chemistry and microfluidics into one analytical system p. 291-336. In F. Turner (ed), Advances in Biosensors, vol. 2 JAI Press, London; Karlsson, R., Michaelsson, A., and L. Mattsson. 1991. Kinetic analysis of monoclonal antibody-antigen interactions with a new biosensor based analytical system. J. Immunol. Meth. 145: 229-246).
Relative affinities were determined by measuring the ability of the phosphopeptides to inhibit the interaction of the SH2 domains with an immobilized phosphopeptide (DMSKDESVDY*VPMLDMK) (SEQ. ID NO: 26) which includes Y751 in the human PDGF receptor. Panel A and B show the results of these measurements, expressed as % inhibition of binding to phosphopeptide Y751.
GST-SH2 domain fusion proteins. The N- and C-SH2 domains of the bovine PI 3-kinase p85 subunit (amino acids 314-431 and 612-722) were obtained by polymerase chain reaction and cloned into the pGEX-2 bacterial expression vector (Smith, D. B., and Johnson K. S., Gene 67: 31-40 (1988).
Glutathione-S-transferase (GST)-SH2 fusion proteins were purified from bacterial lysates by glutathione affinity chromatography (Panayotou, G., et al. EMBO J., 11: 4261-4272 (1992)). Amino acid analysis on an Applied Biosystems 420A analyzer was used to determine the concentration of the recombinant proteins.
Analysis of the interaction of Y1349 and Y1356 with the p85 N- and C- SH2 domains using the BIAcore. […]
(SPR reads the build-up and loss of mass on a sensor chip optically.)

Residues, ends and D or L forms follow the SMILES beside them.

On to `CSCC[C@H](NC(=O)[C@@H](NC(=O)[C@H](CCC(=O)O)NC(=O)[C@@H](N)Cc1ccc(OP(=O)(O)O)cc1)C(C)C)C(=O)N[C@@H](CC(C)C)C(=O)N[C@@H](CCCCN)C(=O)N[C@@H](CS)C(=O)N[C@@H](Cc1c[nH]c2ccccc12)C(=O)O` [H-Tyr*-Glu-Val-Met-Leu-Lys-Cys-Trp-OH] (HELM PEPTIDE1{[N[C@@H](Cc1ccc(OP(=O)(O)O)cc1)C(=O)[*:2]].E.V.M.L.K.C.W}$$$$V2.0), for which the “Apparent relative affinity: inhibition of binding of p85 N- and C-SH2 domains to phosphopeptide Y751” value is reported as “highest apparent affinity”.
